Assay results from PubChem BioAssay (NCI).
“And” between values parts separate entries of the source, which are not always exact repeats. Equal entries are not always repeated.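 How tested: cells in 96-well plates exposed to compound for 48 hours at five concentrations. GI50 marks 50% less growth. TGI denotes the concentration required for complete inhibition of growth.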

Key:
Test in all cases: NCI tumour cell line growth inhibition, 48 h
[1] = tested on: DMS 273 small cell lung
[2] = tested on: M19-MEL melanoma
[3] = tested on: HOP-18 NSCLC
[4] = tested on: RXF-631 renal
[5] = tested on: DMS 114 small cell lung
[6] = tested on: LXFL 529 NSCLC
[7] = tested on: XF 498 CNS
[8] = tested on: KM20L2 colon
[9] = tested on: MDA-N
[10] = tested on: SN12K1 renal
[11] = tested on: P388 leukemia
[12] = tested on: P388/ADR leukemia

Row | SMILES | TGI [1] | TGI [2] | TGI [3] [µM] | TGI [4] [µM] | TGI [5] | TGI [6] [µM] | TGI [7] [µM] | TGI [8] [µM] | TGI [9] | also measured
1 | CN(C)CCNC(=O)c1cccc2nc3ccc4cccnc4c3nc12 | 1.4 µM | 1.62 µM | 6.66 | 11.8 | 2.12 µM |  |  |  |  | 
2 | COC1=CC(=O)C(Br)=CC1=O |  | 32 µM |  | 99.2 | 35.5 µM | 31.2 | 31.5 | > 100 |  | 
3 | COC1=CC(=O)C2C(C1=O)[C@@H]1c3ccccc3OC(C)(C)[C@H]21 (stereo partly specified) | 40.6 µM | 34.5 µM |  |  | 40.8 µM | 32.8 | 32.1 | 66.3 |  | 
4 | Cc1cc(C)nc(NS(=O)(=O)c2ccc(Nc3c4ccccc4nc4c(C(=O)Nc5ccc(S(=O)(=O)Nc6cc(C)on6)cc5)ccc(Cl)c34)cc2)n1 |  | > 100 µM |  | 64.6 |  | 42.4 | 36.2 | 35.4 |  | 
5 | COc1ccc2c3c(c(C(=O)O)oc13)CCC2 | > 100 µM | > 100 µM |  |  | > 100 µM | > 100 | > 100 |  |  | 
6 | O=C(O)CNc1ccc(Cl)c(Cl)c1 |  |  |  |  |  |  |  |  | 73 µM | 
7 | CCCN(CCC)CCc1cc(C(C)=O)n(S(=O)(=O)c2ccc(C)cc2)c1 | > 100 µM | > 100 µM | > 100 |  | > 100 µM | > 100 |  |  |  | 
8 | O=C1NC(=O)C(=Cc2c3ccccc3cc3ccccc23)C(=O)N1 | > 100 µM | > 100 µM | > 100 | > 100 |  | > 100 | > 100 | > 100 |  | 
9 | O=S(=O)(c1ccccc1)c1nccs1 | > 100 µM | > 100 µM | > 100 |  | > 100 µM | > 100 | > 100 | > 100 |  | 
10 | COc1cc2c(c(O)c1C)C(=O)CC(c1ccccc1)O2 (stereo unspecified) |  | > 100 µM | > 100 | > 100 | > 100 µM | > 100 |  | 82.3 |  | 
11 | O=C1NC(=O)[C@@]2(CC[C@@H](O)C2)c2ccncc21 |  |  |  |  |  |  |  |  | > 100 µM | 
12 | Cc1cc(Br)cc(C)c1NC(=O)C(=O)C(C(=O)c1ccncc1)C1OC(=O)c2ccccc21 (stereo unspecified) | > 100 µM |  | > 100 | > 100 | > 100 µM | > 100 | > 100 | > 100 |  | 
13 | COc1cccc2c1C(=O)c1c(O)c3c(c(O)c1C2=O)C[C@@](O)(C(C)=O)C[C@@H]3OC1CC([N+]([O-])(Cc2ccccc2)Cc2ccccc2)C(O)C(C)O1 (stereo partly specified) |  | 2.76 µM | 3.55 | 2.93 | 2.64 µM | 2.31 | 2.63 | 2.92 |  | 
14 | O=C(O)C(Br)C(Br)C(=O)O (stereo unspecified) |  |  |  |  |  |  |  |  | > 100 µM | 
15 | O=c1nc(NC(c2ccccc2)(c2ccccc2)c2ccccc2)ccn1CCCl |  | 40.5 µM | 72.1 | 97.4 | 37.9 µM | 26.4 | 27.1 | 33 |  | 
16 | Cc1c(NC(=O)CCl)c(=O)oc2c(C)c3occc(=O)c3cc12 |  |  |  |  |  |  |  |  | 31 µM | 
17 | CC(N)Cc1ccc(Cl)cc1 (stereo unspecified) | > 100 µM |  | > 100 |  |  | > 100 | > 100 | > 100 |  | 
18 | CCOc1cc(C(=O)O)c2c(ccc3ccc(OC)c(OC)c32)c1OC |  |  |  |  |  |  |  |  | > 100 µM | 
19 | CCO/C(CCn1[nH]c(=O)c(Cl)c(Cl)c1=O)=N\NC(=O)C(=O)NN | > 100 µM | > 100 µM | > 100 | > 100 | > 100 µM | > 100 | > 100 | > 100 |  | 
20 | Nc1ncn(C2OC(COP(=O)(O)O)C(O)C2O)c(=O)n1 (stereo unspecified) |  |  |  |  |  |  |  |  | > 100 µM | 
21 | CCC[CH2][Sn]([CH2]CCC)([CH2]CCC)[O]C(=O)C(OC(C)=O)c1ccccc1 (stereo unspecified) |  |  |  |  |  |  |  | 0.217 |  | GI50 [8]: 0.0801 µM
22 | CC(=O)NNc1nc(C)c(C(/C=C/c2ccc([N+](=O)[O-])cc2)=N/NC(N)=O)s1 |  |  |  |  |  |  |  |  | > 100 µM | 

Row | SMILES | TGI [1] | TGI [2] | TGI [3] [µM] | TGI [4] [µM] | TGI [5] | TGI [6] [µM] | TGI [7] [µM] | TGI [8] [µM] | TGI [9] | also measured
23 | Cc1ccc(NC(=O)C(=O)C(C(=O)c2ccc3ccccc3c2)C2OC(=O)c3ccccc32)c(C)c1 (stereo unspecified) |  | 22.6 µM | 29.5 | 20.6 | 31.7 µM | 20.4 | 10.7 | 56 |  | 
24 | C/C(=N\NC(=O)CC#N)C(CN1CCCCC1)C(c1ccccc1)c1c(O)c2ccccc2oc1=O (stereo unspecified) |  |  |  |  |  |  |  |  | > 100 µM | 
25 | COC(NC(N)=O)C(=O)O (stereo unspecified) |  |  |  |  |  |  |  |  | > 100 µM | 
26 | CCOP(=O)(OCC)/C(C#N)=C\c1ccsc1 | > 100 µM | > 100 µM | > 100 |  | > 100 µM | > 100 | > 100 | > 100 |  | 
27 | Cc1c(N)nc([C@H](CC(N)=O)NC[C@H](N)C(N)=O)nc1C(=O)N[C@H](C(=O)N[C@H](C)[C@@H](O)CC(=O)N[C@H](C(=O)NC(O[C@@H]1O[C@@H](C)[C@@H](N)[C@@H](O)[C@H]1O)C(O)c1nc(-c2nc(C(=O)NCCCCN)cs2)cs1)[C@@H](C)O)[C@@H](O[C@@H]1O[C@@H](CO)[C@@H](O)[C@H](O)[C@@H]1O[C@H]1O[C@H](CO)[C@@H](O)[C@H](OC(N)=O)[C@@H]1O)c1c[nH]cn1 (stereo partly specified) |  |  |  |  |  |  |  |  | > 50 µM | 
28 | CC(CN1CC(=O)NC(=O)C1)N1CC(=O)NC(=O)C1 (stereo unspecified) | > 750 µM | 745 µM | > 511 |  | 409 µM |  | > 690 | > 750 | > 750 µM | GI50 [10]: 67.1 µM; TGI [10]: > 750 µM; TGI [11]: > 750 µM; TGI [12]: > 750 µM
29 | CC(C)=O.O=C([O-])C(F)(F)F.O=C([O-])C(F)(F)F.O=C([O-])C(F)(F)F.O=C([O-])C(F)(F)F.[Rh+2].[Rh+2] | > 100 µM | > 100 µM |  |  | 90.3 µM | > 100 | > 100 | > 100 |  | GI50 [6]: 31 µM; GI50 [7]: 58 µM; GI50 [8]: > 100 µM; GI50 [1]: 94.1 µM; GI50 [2]: 47.4 µM; GI50 [5]: 26.8 µM
30 | S=c1nc(C(c2ccccc2)c2ccccc2)[nH][nH]1 | > 100 µM | > 100 µM |  | > 100 | > 100 µM |  | > 100 | > 100 |  | 
31 | O=C(O)C1CCN(Cc2oc(CO)cc(=O)c2O)C1 (stereo unspecified) |  |  |  |  |  |  |  |  | > 100 µM | 
32 | CC1(C)OC2CC3COC(=O)C3CC2O1 (stereo unspecified) | > 100 µM | > 100 µM | > 100 | > 100 | > 100 µM | > 100 |  | > 100 |  | 
33 | Cc1cn(CCC(N)C(=O)O)c(=O)[nH]c1=O (stereo unspecified) |  |  |  |  |  |  |  |  | > 100 µM | 
34 | COc1cc(O)c(C(=O)CC(C)=O)c(OC)c1 | > 100 µM |  | > 100 |  | > 100 µM | > 100 | > 100 | > 100 |  | 
35 | CC(C)(CN1CCOCC1)C(=O)/C=C/c1ccc(/C=C/C(=O)C(C)(C)CN2CCOCC2)cc1 | 1.87 µM |  |  | 3.13 | 2.16 µM | 2.59 | 2.84 | 2.89 |  | 
36 | Cn1cnc([N+](=O)[O-])c1Sc1nnnn1C | 36.1 µM | 29.9 µM | 21.5 |  | 32.2 µM | 24.4 | 30 |  |  | 
37 | CN(C)C(=S)/N=c1\ssc(=S)n1Cc1cccs1 |  | > 100 µM | > 100 |  | 5.6 µM | > 100 |  | 3.57 | 2.85 µM | 
38 | C#CCN(N=O)C(=O)NCCCCC(NC(=O)OCc1ccccc1)C(=O)OCc1ccccc1 (stereo unspecified) | > 100 µM | 63 µM | > 100 |  |  | 41.4 | 74.1 | > 100 |  | 
39 | O=C(N/C(=C\c1c(O)ccc2ccccc12)c1nc2ccccc2[nH]1)c1ccccc1 | > 100 µM | > 100 µM | > 100 | > 100 | > 100 µM | > 100 | > 100 | > 100 |  | 
40 | CSC(=Nc1ccccc1Cl)NC(=O)c1ccc(Br)cc1 |  | > 100 µM | 94.1 |  | > 100 µM | > 100 | > 100 | > 100 |  | 
41 | COC1CC(C)C(OC)c2cc(O)cc(c2O)NC(=O)/C(C)=C/C=C\C(C)C(OC(N)=O)/C(C)=C\C(C)C1OC (stereo unspecified) | 0.905 µM and 6.33 µM | 15.2 µM and 10.7 µM | 16.5 |  | 23.2 µM and 5.28 µM | 7.64 |  |  | 13.3 µM and 6.75 µM | GI50 [8]: 0.21 µM; GI50 [2]: 0.498 µM; GI50 [5]: 0.202 µM; TGI [12]: 18.2 µM
42 | CCN(CC)CCC(=O)OC1C(C)=CC(C)C(=O)CC(C(C)CC2CCC(O)C(OC)C2)OC(=O)C2CCCCN2C(=O)C(=O)[C@@]2(O)OC(CCC2C)CC(OC)\C(C)=C/C=C/C=C/C(C)CC(C)C(=O)C1OC (stereo partly specified) |  |  |  |  |  |  |  |  | 21.7 µM | 
43 | CCN(CCCl)CCCCCNc1c2ccccc2nc2ccc(OC)cc12 | 1.78 µM | 2.15 µM |  |  | 1.91 µM | 1.93 | 1.36 | 4.38 |  | 
44 | NCCOCn1cc(Cc2cccc(OCc3ccccc3)c2)c(=O)[nH]c1=O | > 100 µM |  | > 100 |  | > 100 µM | > 100 |  | > 100 |  | 
